Experimental data reported in ChEMBL document CHEMBL4334526, “Synthesis of Peptoid-Based Class I-Selective Histone Deacetylase Inhibitors with Chemosensitizing Properties” (J Med Chem, 2019).
Values belong to the compound of their own block, whether it stands above or below them. Calls of active or inactive are those of the source. The rule behind the calls is not given here.

How the values were obtained:
[1] = molecular target: T1, Class 1 histone deacetylase (Homo sapiens, UniProt Q13547+O15379+Q92769+Q9BY41); experiment: Inhibition of class 1 HDAC in human CAL27 cells assessed as potentiation of cisplatin-induced apoptosis by measuring increase in accumulation at sub-G1 phase at […] preincubated for 48 hrs followed by cisplatin addition and measured after 24 hrs by propidium iodide staining based flow cytometry; assay type: cell-based; settings: CAL-27
[2] = molecular target: T1, Class 1 histone deacetylase; experiment: (§1) Inhibition of class 1 HDAC in human CAL27 cells assessed as potentiation of cisplatin-induced apoptosis assessed as increase in caspase-3/7 activation at […] preincubated for 48 hrs followed by cisplatin addition and measured after 24 hrs in presence of pan caspase inhibitor QVD by CellEvent caspase 3/7 green detection reagent/Hoechst 33342 staining based imaging analysis; assay type: cell-based; settings: CAL-27
[3] = molecular target: T2, Protein deacetylase HDAC6 (Homo sapiens) (UniProt Q9UBN7); experiment: Inhibition of HDAC6 in human Cal27CisR cells assessed as acetylation of alpha-tubulin at […] measured after 24 hrs by immunoblot analysis; assay type: cell-based
T2 sequence (whole entry): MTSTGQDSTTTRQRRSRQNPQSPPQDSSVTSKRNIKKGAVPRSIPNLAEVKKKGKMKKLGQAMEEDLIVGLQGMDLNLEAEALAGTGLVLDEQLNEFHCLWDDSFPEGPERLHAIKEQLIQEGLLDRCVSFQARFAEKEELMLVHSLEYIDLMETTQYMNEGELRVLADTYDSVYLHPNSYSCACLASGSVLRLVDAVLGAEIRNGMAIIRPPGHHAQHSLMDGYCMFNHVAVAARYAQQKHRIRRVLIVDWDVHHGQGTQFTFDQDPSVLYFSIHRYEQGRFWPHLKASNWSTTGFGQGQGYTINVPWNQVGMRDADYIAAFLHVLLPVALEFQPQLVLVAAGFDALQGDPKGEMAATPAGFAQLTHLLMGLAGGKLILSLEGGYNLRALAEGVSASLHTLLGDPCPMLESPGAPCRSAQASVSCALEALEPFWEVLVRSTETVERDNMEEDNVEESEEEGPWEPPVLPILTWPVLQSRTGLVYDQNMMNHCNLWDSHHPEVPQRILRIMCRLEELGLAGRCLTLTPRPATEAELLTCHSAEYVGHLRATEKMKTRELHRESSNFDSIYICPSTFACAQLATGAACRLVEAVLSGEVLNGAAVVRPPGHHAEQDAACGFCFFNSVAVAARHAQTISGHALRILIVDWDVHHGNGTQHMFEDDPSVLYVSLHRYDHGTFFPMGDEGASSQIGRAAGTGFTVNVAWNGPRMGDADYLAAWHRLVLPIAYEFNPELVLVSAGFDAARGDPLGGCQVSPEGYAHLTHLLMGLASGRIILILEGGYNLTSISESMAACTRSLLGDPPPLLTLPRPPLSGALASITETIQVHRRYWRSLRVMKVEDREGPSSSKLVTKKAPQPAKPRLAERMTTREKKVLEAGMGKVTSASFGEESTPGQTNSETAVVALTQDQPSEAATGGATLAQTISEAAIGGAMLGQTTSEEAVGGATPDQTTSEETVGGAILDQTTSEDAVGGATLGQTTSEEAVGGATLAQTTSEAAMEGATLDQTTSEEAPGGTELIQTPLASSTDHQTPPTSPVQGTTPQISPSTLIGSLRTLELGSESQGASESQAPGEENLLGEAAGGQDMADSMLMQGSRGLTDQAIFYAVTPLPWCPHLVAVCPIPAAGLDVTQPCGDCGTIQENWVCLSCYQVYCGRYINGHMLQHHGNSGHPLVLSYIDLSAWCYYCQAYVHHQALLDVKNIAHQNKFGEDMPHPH

[4] = molecular target: T1, Class 1 histone deacetylase; experiment: Inhibition of class 1 HDAC in human CAL27 cells assessed as increase in histone H3 acetylation at […] measured after 24 hrs by immunoblot analysis; assay type: cell-based; settings: CAL-27
[5] = molecular target: T1, Class 1 histone deacetylase; experiment: as §1, with “Cal27CisR” for “CAL27”; assay type: cell-based
[6] = molecular target: T1, Class 1 histone deacetylase; experiment: Inhibition of class 1 HDAC in human Cal27CisR cells assessed as increase in histone H3 acetylation at […] measured after 24 hrs by immunoblot analysis; assay type: cell-based
[7] = molecular target: T1, Class 1 histone deacetylase; settings: CAL-27
Description: Inhibition of class 1 HDAC in human CAL27 cells assessed as potentiation of cisplatin-induced cytotoxicity by measuring combination index at 0.25 uM in presence of 0.32 uM cisplatin by MTT assay based Chou-Talalay analysis

[8] = molecular target: T1, Class 1 histone deacetylase; settings: CAL-27; remark: listed apart in the source
Description: Inhibition of class 1 HDAC in human CAL27 cells assessed as potentiation of cisplatin-induced cytotoxicity by measuring combination index at 0.1 uM in presence of 3.2 uM cisplatin by MTT assay based Chou-Talalay analysis

[9] = molecular target: T1, Class 1 histone deacetylase
Description: Inhibition of class 1 HDAC in human Cal27CisR cells assessed as potentiation of cisplatin-induced cytotoxicity by measuring combination index at 0.25 uM in presence of 3.2 uM cisplatin by MTT assay based Chou-Talalay analysis

[10] = molecular target: T1, Class 1 histone deacetylase; remark: listed apart in the source
Description: Inhibition of class 1 HDAC in human Cal27CisR cells assessed as potentiation of cisplatin-induced cytotoxicity by measuring combination index at 0.10 uM in presence of 10 uM cisplatin by MTT assay based Chou-Talalay analysis

[11] = molecular target: T1, Class 1 histone deacetylase; remark: listed apart in the source
Description: Inhibition of class 1 HDAC in human Cal27CisR cells assessed as potentiation of cisplatin-induced cytotoxicity by measuring combination index at 0.10 uM in presence of 100 uM cisplatin by MTT assay based Chou-Talalay analysis

[12] = molecular target: T1, Class 1 histone deacetylase; settings: CAL-27; remark: listed apart in the source
Description: Inhibition of class 1 HDAC in human CAL27 cells assessed as potentiation of cisplatin-induced cytotoxicity by measuring combination index at 0.25 uM in presence of 3.2 uM cisplatin by MTT assay based Chou-Talalay analysis

[13] = molecular target: T1, Class 1 histone deacetylase; settings: CAL-27; remark: listed apart in the source
Description: Inhibition of class 1 HDAC in human CAL27 cells assessed as potentiation of cisplatin-induced cytotoxicity by measuring combination index at 0.1 uM in presence of 0.1 uM cisplatin by MTT assay based Chou-Talalay analysis

[14] = molecular target: T1, Class 1 histone deacetylase; assay type: cell-based
[15] = Induction of apoptosis in human Cal27CisR cells assessed as caspase-3/7 activation at 0.5 uM measured after 48 hrs by CellEvent caspase 3/7 green detection reagent/Hoechst 33342 staining based imaging analysis relative to control; assay type: functional
[16] = molecular target: T2, Protein deacetylase HDAC6 (Homo sapiens); experiment: Inhibition of HDAC6 in human CAL27 cells assessed as acetylation of alpha-tubulin at 5 uM measured after 24 hrs by immunoblot analysis; assay type: cell-based
[17] = molecular target: T1, Class 1 histone deacetylase; experiment: Inhibition of class 1 HDAC in human Cal27CisR cells assessed as potentiation of cisplatin-induced cytotoxicity by measuring fold reduction in cisplatin IC50 at 5 uM preincubated for 48 hrs followed by cisplatin addition and measured after 72 hrs by MTT assay relative to cisplatin IC50; assay type: cell-based
[18] = molecular target: T1, Class 1 histone deacetylase; experiment: Inhibition of class 1 HDAC in human Cal27CisR cells assessed as potentiation of cisplatin-induced cytotoxicity by measuring cisplatin IC50 at 5 uM preincubated for 48 hrs followed by cisplatin addition and measured after 72 hrs by MTT assay (reference value: 63.2 uM); assay type: cell-based
Homo sapiens = species: Homo sapiens; experiment: Induction of apoptosis in human Cal27CisR cells assessed as accumulation at sub-G1 phase at 5 uM after 48 hrs by propidium iodide staining based flow cytometry; assay type: functional, cell-based
[19] = molecular target: T1, Class 1 histone deacetylase; experiment: Inhibition of class 1 HDAC in human CAL27 cells assessed as increase in histone H3 acetylation at 5 uM measured after 24 hrs by immunoblot analysis; assay type: cell-based; settings: CAL-27
CAL-27 = experiment: Induction of apoptosis in human CAL27 cells assessed as accumulation at sub-G1 phase at 5 uM after 48 hrs by propidium iodide staining based flow cytometry; assay type: functional, cell-based

T1 sequence (O15379 whole entry, looked up): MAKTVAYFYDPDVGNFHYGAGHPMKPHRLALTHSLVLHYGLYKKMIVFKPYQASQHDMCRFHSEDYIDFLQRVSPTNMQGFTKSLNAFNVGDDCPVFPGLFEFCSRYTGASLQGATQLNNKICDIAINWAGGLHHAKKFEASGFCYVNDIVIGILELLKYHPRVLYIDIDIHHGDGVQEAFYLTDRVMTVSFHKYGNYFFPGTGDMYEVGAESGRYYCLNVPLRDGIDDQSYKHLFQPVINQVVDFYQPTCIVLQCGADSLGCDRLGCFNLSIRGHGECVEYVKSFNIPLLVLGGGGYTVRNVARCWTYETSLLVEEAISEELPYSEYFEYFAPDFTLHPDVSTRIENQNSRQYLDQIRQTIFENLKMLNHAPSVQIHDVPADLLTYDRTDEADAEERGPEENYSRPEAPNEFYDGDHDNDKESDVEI
T1 sequence (Q13547 whole entry, looked up): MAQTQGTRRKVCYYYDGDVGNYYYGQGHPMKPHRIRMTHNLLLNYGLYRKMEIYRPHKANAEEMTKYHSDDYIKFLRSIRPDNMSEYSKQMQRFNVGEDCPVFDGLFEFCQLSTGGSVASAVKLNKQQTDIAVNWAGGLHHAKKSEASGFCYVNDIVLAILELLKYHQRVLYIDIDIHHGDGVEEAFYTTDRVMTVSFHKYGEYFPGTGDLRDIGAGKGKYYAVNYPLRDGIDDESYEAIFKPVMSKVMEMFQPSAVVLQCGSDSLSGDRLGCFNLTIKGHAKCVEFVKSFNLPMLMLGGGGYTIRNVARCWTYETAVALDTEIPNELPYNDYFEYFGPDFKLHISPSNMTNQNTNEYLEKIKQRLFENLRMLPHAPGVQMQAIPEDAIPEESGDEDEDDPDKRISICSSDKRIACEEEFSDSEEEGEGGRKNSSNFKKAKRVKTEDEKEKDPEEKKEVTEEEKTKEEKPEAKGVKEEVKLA
T1 sequence (Q92769 whole entry, looked up): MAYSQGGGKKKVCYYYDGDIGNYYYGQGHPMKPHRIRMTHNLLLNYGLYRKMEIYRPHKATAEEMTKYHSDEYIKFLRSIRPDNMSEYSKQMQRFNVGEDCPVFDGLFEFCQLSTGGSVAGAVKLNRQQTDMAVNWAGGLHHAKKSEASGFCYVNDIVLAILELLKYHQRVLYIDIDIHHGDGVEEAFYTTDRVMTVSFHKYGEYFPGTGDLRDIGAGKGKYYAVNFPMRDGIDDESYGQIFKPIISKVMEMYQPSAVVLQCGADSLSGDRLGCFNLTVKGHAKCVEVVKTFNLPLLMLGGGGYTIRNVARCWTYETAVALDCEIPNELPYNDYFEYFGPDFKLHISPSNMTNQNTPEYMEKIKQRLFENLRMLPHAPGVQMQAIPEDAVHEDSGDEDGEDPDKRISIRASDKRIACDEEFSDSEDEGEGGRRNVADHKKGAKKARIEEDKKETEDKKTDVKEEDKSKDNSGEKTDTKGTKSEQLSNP
T1 sequence (Q9BY41 whole entry, looked up): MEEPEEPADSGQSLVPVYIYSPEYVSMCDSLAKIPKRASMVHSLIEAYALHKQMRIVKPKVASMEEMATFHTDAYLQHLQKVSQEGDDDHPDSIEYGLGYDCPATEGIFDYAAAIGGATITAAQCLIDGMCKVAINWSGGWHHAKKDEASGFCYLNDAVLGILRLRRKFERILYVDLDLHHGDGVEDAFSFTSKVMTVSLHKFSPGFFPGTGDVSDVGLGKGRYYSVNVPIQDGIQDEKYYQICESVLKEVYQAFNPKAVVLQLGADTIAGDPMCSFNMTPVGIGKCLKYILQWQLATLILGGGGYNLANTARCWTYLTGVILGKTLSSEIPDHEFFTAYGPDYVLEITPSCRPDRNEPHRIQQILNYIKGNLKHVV

Compound: Cc1cc(C)cc(C(=O)N(CC(=O)NCc2ccccc2)Cc2ccc(C(=O)Nc3cc(-c4ccccc4)ccc3N)cc2)c1
- inhibition [1]: Active
- inhibition [2]: inactive
- inhibition [3]: inactive
- inhibition [4]: Active
- inhibition [5]: inactive
- inhibition [6]: Active

- CI [7]: 0.39
- CI [8]: 0.37
- CI [9]: 0.44
- CI [10]: < 0.2
- CI [11]: 0.07
- CI [12]: 0.07
- CI [13]: < 0.2
- IC50 [14]: 8.42 µM
Compound: CN(C)c1ccc(C(=O)N(CC(=O)NCc2ccccc2)Cc2ccc(C(=O)Nc3ccccc3N)cc2)cc1
- Activity [15]: 8.16%

- inhibition [16]: inactive
- inhibition [19]: Active
Compound: Cc1cc(C)cc(C(=O)N(CCCCCC(=O)Nc2cc(-c3ccccc3)ccc2N)CC(=O)NCc2ccccc2)c1
- Ratio IC50 [17]: 4.03
- IC50 [18]: 15.7 µM
- Activity (Homo sapiens): inactive
- Activity (CAL-27): inactive
